Results as given in patent publication US11957766B2, “HNQO1-activatable fluorescent probe for imaging cancer cells in-vitro and in-vivo” (Texas Tech University System, priority 2019, dated 2024).

Tests used:
NQO1 = NQO1 (Homo sapiens, UniProt P15559); assay: HPLC analysis of NQO1 catalyzed conversion of NIR-ASM; format: biochemical; set-up: purchased Sigma-Aldrich D1515; conditions: after 30 min of incubation
Description: Design, preparation, and characterization of the NIR-ASM fluorescent probe. Imaging agents emitting near-infrared fluorescence enable deeper penetration with low phototoxicity and high signal-to-background ratios due to minimal tissue auto-fluorescence, which is a prime requirement for in vivo imaging studies.^40,41 Accordingly, the inventors designed an NQO1 activatable near-infrared fluorescent probe (NIR-ASM) by attaching a trimethyl-lock QPA with (E)-2-(3-(4-aminostyryl)-5,5-dimethylcyclohex-2-en-1-ylidene)malononitrile (ASM) for molecular imaging of cancer cells in vivo (FIG. 9A). The fluorophore ASM was used in this study because of its strong NIR fluorescence signal with substantial Stokes shift (˜190 nm), to eliminate background interferences by avoiding reabsorption of emitted photons. […] NQO1 is a ubiquitous cytosolic two-electron reductase that catalyzes the reduction of quinone substrates in the presence of NADH. Upon interaction with NQO1 in the presence of NADH, QPA present in non-fluorescent NIR-ASM undergoes two-electron reduction to form an o-hydroxydihydrocinnamic acid derivative that undergoes rapid lactonization under physiological conditions to yield dihydrocoumarin, 6-hydroxy-4,4,5,7,8-pentamethylchroman-2-one (HPC) along with highly fluorescent ASM. […]

[1] = tested on: normal (astrocytes) cells; assay: Fluorescence microscopy of NQ-DCP in hNQO1 negative normal cells; format: cell-based; conditions: 10 μM, 60 min
Method: Visualization of Cancer Cells by Fluorescence Imaging of hNQO1. […] The cytotoxicity of NQ-DCP was initially evaluated in cultured brain tumor (DAOY, T98G, and U87MG) and normal (astrocytes) cells to assess its biocompatibility using the resazurin reduction assay. […] Cells were incubated with NQ-DCP (10 μM) for 60 min, washed with PBS and were imaged under a fluorescence microscope.
Cell Culture, Fluorescence Imaging, and Flow Cytometry Analysis. Brain tumor cells and astrocytes were grown in Dulbecco's modified Eagle's (DMEM) medium containing 10% Fetal Bovine Serum and 1% penicillin/streptomycin in a humidified atmosphere of 5% CO2 at 37° C. For fluorescence imaging, initially, cells were seeded into 6-well plate and cultured overnight in respective media at 37° C. Media was replaced with fresh medium containing 10 μM NQ-DCP and incubated at 37° C. for 60 min and then the medium was replaced with PBS and live cells were imaged using a fluorescence microscope. For inhibitor study, cells were pretreated with NQO1 inhibitor ES936 (100 nM) for 6 h before adding the NQ-DCP. For determining endogenous hNQO1 activity in cancer cells using flow cytometry, about 10×10^4 cells were incubated with 10 μM of NQ-DCP for 60 min and were analyzed using flow cytometry.

intracranial U87MG tumor = assay: Fluorescence imaging of hNQO1 in intracranial U87MG tumor-bearing mice with NQ-DCP; format: in vivo
Method: Fluorescence Imaging of hNQO1 in U87MG Tumor-Bearing Mice. With the prominent performance of NQ-DCP in cellular fluorescence imaging, the inventors further applied this probe to evaluate its capacity for the noninvasive fluorescence imaging of hNQO1 in vivo. NQ-DCP (10 mg/kg, 50 μL) was intravenously injected into sub-cutaneous U87MG tumor-bearing mice. The whole-body fluorescence was imaged with a Caliper IVIS Spectral imaging system. […] The host organs and tumor from the mice administered with NQ-DCP were harvested and their fluorescence was analyzed ex vivo using the IVIS to confirm the tumor-selective targeting ability of NQ-DCP. […] The application of NQ-DCP to image hNQO1 activity was also investigated in intracranial U87MG tumor-bearing mice. Tumor xenografts were established by implanting exponentially growing U87MG-Luc cells by stereotaxic injection into mice brain and the tumor growth was assessed by quantitative bioluminescence using IVIS (in vivo imaging system) (FIG. 7C). […] Therefore, the inventors performed intracranial injection of NQ-DCP (100 μM, 5 μL) to both healthy and tumor-bearing mice, the brain was isolated after 30 min and fluorescence images acquired.
Four-week-old male and female NCG and athymic nude mice were housed in a micro ventilated caging system in a sterile environment and fed ad-libitum with standard irradiated research rodent diet and water. To detect endogenous NQO1 activity, NQ-DCP (10 mg/kg) was dissolved PEG-400:EtOH:saline (57.1:14.3:28.6, v/v/v) and 50 μL given through intravenous injection and animals were imaged using IVIS Lumina XR Imaging system. To establish U87MG xenografts, a total of 5×10^6 cells (in 0.1 mL) were subcutaneously injected into the right inguinal area of the athymic nude mice. For establishing the orthotopic brain tumor model, the animals were anesthetized using 2% isoflurane and positioned in a Benchmark (Leica) stereotactic instrument. A 27-gauge needle was then used to drill a burr hole into the skull 0.5-mm anterior and 2-mm lateral to the bregma. U87MG-Luc2 cell suspension (2×10^5 cells in 5 μl PBS) was injected in the striatum at a depth of […] from the dural surface over 10 min. […] To detect endogenous NQO1 activity, orthotopic brain tumor models, NQ-DCP ([…]) was dissolved saline and 5 μL given through intracranial injection to both healthy and tumor-bearing mice. After 30 min of administration, brains were isolated and imaged using IVIS Lumina XR Imaging system.

[2] = intracranial injection 100 μM, 5 μL, brain isolated after 30 min

NQO1, sequence (P15559 whole entry): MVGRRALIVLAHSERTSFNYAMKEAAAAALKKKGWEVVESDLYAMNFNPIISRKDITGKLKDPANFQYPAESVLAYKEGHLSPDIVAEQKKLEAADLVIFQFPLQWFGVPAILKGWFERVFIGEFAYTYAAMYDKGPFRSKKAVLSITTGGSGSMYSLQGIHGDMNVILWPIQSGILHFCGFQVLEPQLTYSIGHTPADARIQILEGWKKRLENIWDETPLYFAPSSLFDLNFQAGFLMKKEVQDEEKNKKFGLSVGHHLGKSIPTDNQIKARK

| Compound | conversion into ASM by NQO1 (HPLC) (NQO1) | fluorescence signal in normal cells [1] | blood-brain barrier crossing (intracranial U87MG tumor; explanation offered ("perhaps") for lack of signal after systemic injection) | ex vivo brain fluorescence, control healthy mouse (intracranial U87MG tumor; [2]) | ex vivo brain fluorescence, tumor-bearing mouse (intracranial U87MG tumor; [2]) | fluorescence signal in intracranial tumors (intracranial U87MG tumor; systemic injections of the probe) |
| --- | --- | --- | --- | --- | --- | --- |
| CC1=C(C)C(=O)C(C(C)(C)CC(=O)Nc2ccc(/C=C/C3=CC(=C(C#N)C#N)CC(C)(C)C3)cc2)=C(C)C1=O [NIR-ASM, (E)-N-(4-(2-(3-(dicyanomethylene)-5,5-dimethylcyclohex-1-en-1-yl)vinyl)phenyl)-3-methyl-3-(2,4,5-trimethyl-3,6-dioxocyclohexa-1,4-dien-1-yl)butanamide] | nearly completely converted into ASM | – | – | – | – | – |
| CC1=C(C)C(=O)C(C(C)(C)CC(=O)Oc2ccc(/C=C/C3=CC(=C(C#N)C#N)CC(C)(C)C3)cc2)=C(C)C1=O [NQ-DCP] | – | no signals were observed | inability of the NQ-DCP to cross the blood-brain barrier | no fluorescence | bright fluorescence signal | not able to observe any fluorescence signal |
